Key:
VAP-1/SSAO [1] = target: T1, VAP-1/SSAO (Homo sapiens (Human), UniProt Q16853); test: Human VAP-1 enzyme activity assay (Amplex Red Monoamine Oxidase kit); format: biochemical; conditions: 10 nM VAP-1 enzyme, 30 min preincubation, benzylamine substrate; read-out: Human Recombinant VAP-1/SSAO Enzyme Inhibitory Activity IC50
Description: Human VAP-1 enzyme activity assay:
The inhibition of the sample on VAP-enzyme activity was measured by using an Amplex® Red Monoamine Oxidase kit (Invitrogen #A12214). 100 nL of the gradiently-diluted to-be-tested compound (solvent DMSO) was added to a 384-well plate. 25 μL of 10 nM VAP-1 enzyme solution was added and incubated for 30 minutes at room temperature. A substrate mixture of VAP-1 enzyme (200 μM Amplex Red, 1 U/mL HRP, 1 mM Benzylamine) was added and incubated for 60 minutes at room temperature. After the incubation, the fluorescent signal was read with a microplate reader Envision (excitation light wavelength 530-560 nm, emission light wavelength 590 nm). The fluorescence signal value after the background signal was removed was analyzed by Prism software, and the IC50 of the sample against the VAP-1 enzyme was calculated.

VAP-1/SSAO [2] = target: T1, VAP-1/SSAO; test: VAP-1 cell activity assay (HUVEC or CHO cells transfected with VAP-1/pCDNA (3.1) plasmid, Amplex Red); format: cell-based; conditions: HUVEC or CHO cells transfected with VAP-1 plasmid; read-out: VAP-1/SSAO Cellular Inhibitory Activity IC50
Description: The inhibition of the sample on VAP-1 cell activity was measured by using an Amplex® Red Monoamine Oxidase kit (Invitrogen #A12214).
The cultured HUVEC or CHO cells were plated into a 6-well plate at a density of 0.8 M/well, placed in a 37° C., 5% CO2 incubator for incubation for 24 hours, and then the cells was transferred with a Lipo2000 reagent and a VAP-1/pCDNA (3.1) plasmid, and liquid was changed for the cells after 5 hours (Lipo2000 was toxic to the cells); after 24 hours, the cells were digested and plated into 384-well plates with a density of 25 μl, 10000 cells/well, and liquid was replaced with medium without FBS for the cells after 6-7 hours, and the cell plates were incubated overnight at 37° C. in a 5% CO2 incubator.
1) Dilution of the compound: serial dilution in 4× gradient was carried out with 100% DMSO, 10 points were diluted, the starting concentration of the to-be-tested compound was 0.5 mM (final concentration was 1 μM); 100 nl of compound solution was transferred to a 384-well cell assay plate with ECHO. Negative control wells: 100 nl of DMSO; background control wells: 100 nl DMSO+25 μL medium.
2) The reaction was carried out in the dark at room temperature for 30 min.
3) Preparation of Amplex Red reagent+HRP+benzylamine substrate working solution: Amplex Red reagent+HRP+benzylamine substrate working solution (200 μM Amplex Red reagent+1 U/mL HRP+1 mM benzylamine): 45 μl of 20 mM Amplex Red reagent mother solution, 22.5 μl of 200 U/ml horseradish peroxidase (HRP) mother solution and 45 ul of 100 mM benzylamine were tanken and added to 4.3875 ml of 1× reaction buffer.
4) After 30 min, 25 μl of the substrate working solution was added to a 384-well plate, and a final concentration was 100 μM Amplex Red reagent+0.5 U/mL HRP+0.5 mM benzylamine, respectively.
5) The reaction was carried out in the dark at room temperature for 60 minutes, and the fluorescence value was measured by Envision: the excitation wave was 535 nm, and the emission wave was 590 nm.
6) Inhibition rate calculation formula: % inhibition rate=(1−(test hole minus background−positive control well minus background)/(negative control well minus background-positive control well minus background))*100
7) The data were analyzed with Prism. The IC50 of the sample against VAP-1 cells was calculated.

T1 sequence (Q16853 whole entry): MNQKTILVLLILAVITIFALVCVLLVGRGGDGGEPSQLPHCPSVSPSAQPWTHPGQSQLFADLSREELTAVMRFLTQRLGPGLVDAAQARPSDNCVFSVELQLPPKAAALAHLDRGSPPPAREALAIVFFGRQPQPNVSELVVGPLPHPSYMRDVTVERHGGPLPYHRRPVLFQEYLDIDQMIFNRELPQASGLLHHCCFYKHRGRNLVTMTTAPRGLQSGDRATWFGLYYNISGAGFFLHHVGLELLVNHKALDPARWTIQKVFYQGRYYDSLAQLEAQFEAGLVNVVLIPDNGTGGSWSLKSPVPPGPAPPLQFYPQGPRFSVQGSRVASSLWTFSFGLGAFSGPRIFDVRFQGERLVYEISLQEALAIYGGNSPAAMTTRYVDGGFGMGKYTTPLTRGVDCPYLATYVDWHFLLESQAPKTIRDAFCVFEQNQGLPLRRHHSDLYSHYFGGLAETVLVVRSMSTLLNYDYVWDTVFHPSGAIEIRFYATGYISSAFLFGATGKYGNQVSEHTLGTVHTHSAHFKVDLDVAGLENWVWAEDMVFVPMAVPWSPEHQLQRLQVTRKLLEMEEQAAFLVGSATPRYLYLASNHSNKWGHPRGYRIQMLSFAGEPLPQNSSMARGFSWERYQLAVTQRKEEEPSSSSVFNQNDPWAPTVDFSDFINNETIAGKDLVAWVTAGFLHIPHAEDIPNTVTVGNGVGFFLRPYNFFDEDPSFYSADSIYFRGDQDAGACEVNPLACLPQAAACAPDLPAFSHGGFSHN

| SMILES | IC50 (VAP-1/SSAO [1]) [pM] | IC50 (VAP-1/SSAO [2]) [pM] |
| --- | --- | --- |
| Cc1nnc(-c2ccc(OC/C(=C/F)CN)cc2)o1 [WX004] | 2500 |  |
| Cc1n[nH]c(-c2ccc(OC/C(=C/F)CN)cc2)n1 [WX009] | 3700 |  |
| CCn1nnc(-c2ccc(OC/C(=C/F)CN)cc2)n1 [WX014] | 800 | 300 |
| NC/C(=C\F)COc1ccc(-c2nc(C3CC3)no2)cc1 [WX016] | 1000 | 200 |
| NC/C(=C\F)COc1ccc(-c2nc(-c3ccccc3)no2)cc1 [WX017] | 800 |  |
| CC(C)(C)c1noc(-c2ccc(OC/C(=C/F)CN)cc2)n1 [WX019] | 2000 |  |
| Cn1cnc(-c2ccc(OC/C(=C/F)CN)cc2)n1 [WX025] | 900 |  |
| Cc1nc(-c2ccc(OC/C(=C/F)CN)cc2)no1 [WX028] | 700 |  |
| NC/C(=C\F)COc1ccc(-c2nc(C3CC3)n[nH]2)cc1 [WX034] | 800 | 400 |
| CC(C)(C)c1n[nH]c(-c2ccc(OC/C(=C/F)CN)cc2)n1 [WX035] | 2300 |  |
| NC/C(=C\F)COc1ccc(-c2nc(C(F)(F)F)n[nH]2)cc1 [WX036] | 4600 |  |
| Cc1cn[nH]c1-c1ccc(OC/C(=C/F)CN)cc1 [WX041] | 600 |  |
| CC(C)(C)NC(=O)c1noc(-c2ccc(OC/C(=C/F)CN)cc2)n1 [WX042] | 1600 |  |
| CC(C)(C)c1nc(-c2ccc(OC/C(=C/F)CN)cc2)no1 [WX045] | 1100 |  |
| CC(C)(C)n1nnc(-c2ccc(OC/C(=C/F)CN)cc2)n1 [WX048] | 600 |  |
| NC/C(=C\F)COc1ccc(N2C(=O)C(=O)c3ccccc32)cc1 [WX052] | 1300 |  |
| NC/C(=C\F)COc1ccc(-c2nc(C3CC3)no2)c(Cl)c1 [WX056] | 1700 |  |
| CS(=O)(=O)n1nc(C2CC2)nc1-c1ccc(OC/C(=C/F)CN)cc1 [WX062] | 1200 |  |
| NC/C(=C\F)COc1ccc(-c2nc(C3CCCC3)n[nH]2)cc1 [WX064] | 800 |  |
| NC/C(=C\F)COc1ccc(-c2nccc(N3CCOCC3)n2)cc1 [WX070] | 1100 |  |
| NC/C(=C\F)COc1ccc(-c2nc(C(N)=O)n[nH]2)cc1 [WX072] | 700 |  |
| NC/C(=C\F)COc1ccc(-c2nc(N3CCOCC3)n[nH]2)cc1 [WX073] | 900 |  |
| NC/C(=C\F)COc1ccc(-c2nc(N)no2)cc1 [WX074] | 1000 |  |
| Cn1nc(-c2ccc(OC/C(=C/F)CN)cc2)nc1C1CC1 [WX075] | 700 |  |
| Cn1nc(C2CC2)nc1-c1ccc(OC/C(=C/F)CN)cc1 [WX076] | 2100 |  |

| SMILES | IC50 (VAP-1/SSAO [1]) [pM] | IC50 (VAP-1/SSAO [2]) [pM] |
| --- | --- | --- |
| CC(C)(C)C(=O)Nc1noc(-c2ccc(OC/C(=C/F)CN)cc2)n1 [WX077] | 1600 |  |
| COc1ccc(Cn2nc(-c3ccc(OC/C(=C/F)CN)cc3)nc2NC2CC2)cc1 [WX080] | 3800 |  |
| NC/C(=C\F)COc1ccc(-c2nc(N3CCOCC3)cs2)cc1 [WX086] | 9900 |  |
| Cn1nc(C(C)(C)C)nc1-c1ccc(OC/C(=C/F)CN)cc1 [WX089] | 1900 |  |
| Cn1nc(-c2ccc(OC/C(=C/F)CN)cc2)nc1C(C)(C)C [WX090] | 1100 |  |
| CC(C)n1nc(-c2ccc(OC/C(=C/F)CN)cc2)nc1C1CC1 [WX091] | 1200 | 1300 |
| CCn1nc(-c2ccc(OC/C(=C/F)CN)cc2)nc1C1CC1 [WX092] | 1400 |  |
| Cn1nc(-c2ccc(OC/C(=C/F)CN)cc2)nc1C1CCOCC1 [WX095] | 2900 | 200 |
| NC/C(=C\F)COc1ccc(-c2nc(C3CC3(F)F)n[nH]2)cc1 (centres unmarked) [WX096] | 800 |  |
| NC/C(=C\F)COc1cc(F)c(-c2nc(N3CCOCC3)n[nH]2)c(F)c1 [WX099] | 3400 |  |
| NC/C(=C\F)COc1ccc(-c2nc(N3CCOCC3)n[nH]2)c(F)c1 [WX100] | 1100 |  |
| CC1(C)CN=C(c2ccc(OC/C(=C/F)CN)cc2)N1 [WX106] | 1100 |  |
| Cn1nc(-c2ccc(OC/C(=C/F)CN)cc2Cl)nc1N1CCOCC1 [WX107] | 900 | 1500 |
| CC(C)n1nc(C(F)F)nc1-c1ccc(OC/C(=C/F)CN)cc1 [WX109] | 2800 | 700 |
| NC/C(=C\F)COc1ccc(-c2nc(C3CC3)n(CCO)n2)cc1 [WX112] | 1700 | 900 |
| NC/C(=C\F)COc1ccc(-c2nc(C3CC3)n(CC(F)(F)F)n2)cc1 [WX113] | 1100 | 900 |
| Cn1nc(C2(F)CC2)nc1-c1ccc(OC/C(=C/F)CN)cc1 [WX117] | 700 | 900 |
| Cn1nc(-c2ccc(OC/C(=C/F)CN)cc2)nc1N1CCOCC1 [WX122] | 1000 |  |
| CC(C)n1nc(-c2ccc(OC/C(=C/F)CN)cc2)nc1N1CCOCC1 [WX123] | 2200 |  |
| CC(C)n1nc(-c2ccc(OC/C(=C/F)CN)cc2)nc1C(F)F [WX124] | 1400 |  |
| CCn1nc(-c2ccc(OC/C(=C/F)CN)cc2)nc1N1CCOCC1 [WX125] | 1000 |  |
| Cn1nc(-c2ccc(OC/C(=C/F)CN)cc2)nc1C1(F)CC1 [WX127] | 800 |  |
| CCn1nc(-c2ccc(OC/C(=C/F)CN)cc2)nc1C(F)F [WX128] | 1000 |  |
| CCn1nc(-c2ccc(OC/C(=C/F)CN)cc2)nc1C1(F)CC1 [WX129] | 1000 |  |
| CC(C)n1nc(-c2ccc(OCC(=CF)CN)cc2)nc1C1(F)CC1 [WX130] | 1400 |  |

Now those with a lower IC50 (VAP-1/SSAO [1]), led by results:

| IC50 (VAP-1/SSAO [1]) [pM] | IC50 (VAP-1/SSAO [2]) [pM] | SMILES |
| --- | --- | --- |
| 300 |  | NC/C(=C\F)COc1ccc(-c2ncccn2)cc1 [WX021] |
| 300 |  | Cc1csc(-c2ccc(OC/C(=C/F)CN)cc2)n1 [WX022] |
| 400 |  | NC/C(=C\F)COc1ccc(-c2nc3ccccc3o2)cc1 [WX023] |
| 300 |  | Cc1ncc(-c2ccc(OC/C(=C/F)CN)cc2)s1 [WX024] |
| 300 |  | Cn1ncc(-c2ccc(OC/C(=C/F)CN)cc2)n1 [WX026] |
| 300 |  | NC/C(=C\F)COc1ccc(-c2noc3ccccc23)cc1 [WX033] |
| 500 |  | Cc1coc(-c2ccc(OC/C(=C/F)CN)cc2)n1 [WX039] |
| 500 |  | Cc1cnoc1-c1ccc(OC/C(=C/F)CN)cc1 [WX040] |
| 500 |  | NC/C(=C\F)COc1ccc(-c2noc(C3CC3)n2)cc1 [WX044] |
| 300 |  | NC/C(=C\F)COc1ccc(-c2nnn(C3CC3)n2)cc1 [WX049] |
| 400 |  | NC/C(=C\F)COc1ccc(-c2nc3ccc(Cl)cc3[nH]2)cc1 [WX054] |
| 200 |  | NC/C(=C\F)COc1ccc(-c2nnc(NC3CC3)o2)cc1 [WX079] |
| 500 |  | NC/C(=C\F)COc1ccc(-c2nc(NC3CC3)n[nH]2)cc1 [WX081] |
| 300 |  | NC/C(=C\F)COc1ccc(-c2nc(NC3CC3)no2)cc1 [WX082] |
| 400 |  | NC/C(=C\F)COc1ccc(-c2n[nH]c(C(CO)CCl)n2)cc1 (centres unmarked) [WX083] |
| 200 |  | NC/C(=C\F)COc1ccc(-c2nc(C3CCC3)n[nH]2)cc1 [WX085] |
| 300 | 800 | NC/C(=C\F)COc1ccc(-c2nc(C3(F)CC3)n[nH]2)cc1 [WX087] |
| 400 | 1600 | NC/C(=C\F)COc1ccc(-c2nc(C(F)F)n[nH]2)cc1 [WX088] |
| 300 |  | NC/C(=C\F)COc1ccc(-c2nc(C3CCOCC3)n[nH]2)cc1 [WX093] |
| 300 |  | NC/C(=C\F)COc1ccc(-c2nc(C3CC3)n[nH]2)c(F)c1 [WX094] |
| 500 | 300 | CCCc1n[nH]c(-c2ccc(OC/C(=C/F)CN)cc2)n1 [WX097] |
| 400 | 400 | NC/C(=C\F)COc1ccc(-c2nc(CC(F)(F)F)n[nH]2)cc1 [WX101] |
| 400 |  | Cc1nc(-c2ccc(OC/C(=C/F)CN)cc2)sc1N1CCOCC1 [WX102] |
| 200 |  | NC/C(=C\F)COc1ccc(-c2nc(CC3CCCC3)n[nH]2)cc1 [WX103] |
| 300 | 700 | Cn1nc(CC(F)(F)F)nc1-c1ccc(OC/C(=C/F)CN)cc1 [WX104] |
| 500 |  | Cn1nc(-c2ccc(OC/C(=C/F)CN)cc2)nc1CC(F)(F)F [WX105] |
| 400 |  | Cc1nc(-c2ccc(OC/C(=C/F)CN)cc2)sc1C [WX111] |

From patent US11001563B2, “SSAO inhibitor” (SHANDONG DANHONG PHARMACEUTICAL CO., LTD., priority 2017, dated 2021)
